Test [1] deals with gamma-secretase. Also noted: method as in PMID 22505028, PMID 19542625. The settings on record: weak modulator; cited from earlier work.
Test [2] concerns gamma-secretase. In words: Six-day once-a-day oral dosing PK/PD in Tg2576 mice (brain, plasma, CSF Aβ). It counts as in vivo. The settings on record: positive control, orally once on day six, 6 hrs post dose.
Method: Female transgenic mice (Tg2576, 3 months of age; n = 20), wild-type male CD-1 mice (six weeks of age; n = 8 to 12) or wild-type male Sprague Dawley rats (200 to 225 g body weight; n = 12) were utilized to assess in vivo efficacy.
In the transgenic studies, compound was dosed in 10:20:70 ethanol/solutol/water via oral gavage. […] The mice were subjected to cisterna magna puncture and collection of cerebrospinal fluid (CSF) (approximately 5 μl per mouse). Individual CSF samples were flash-frozen on dry ice and stored at -80°C. Thereafter, the mice were subjected to cardiac puncture and blood samples were collected into K2EDTA tubes and stored on wet ice until processed to plasma by centrifugation (2,000 g at 4°C for 10 minutes) within 30 minutes of collection. The plasma was aliquoted for both Aβ measurements and parent drug using LC/MS/MS. Both sets of tubes were frozen at -80°C. The brains were perfused with non-heparinized saline (the blood flushed away) and removed carefully. Brains were rinsed with ice cold PBS (without Mg^2+ or Ca^2+), blotted dry, dissected on ice into three pieces (left and right hemisphere and cerebellum). Samples were frozen in liquid nitrogen immediately prior to storage at -80°C. Cerebella were analyzed for parent drug via LC/MS/MS. Parent drug levels were compared to a standard curve to establish the plasma, brain and CSF levels. […]
Test [3] relates to gamma-secretase. The test is described as follows: Aβ peptides in conditioned media of CHO-2B7 cells (MSD 3-Plex). It counts as cell-based, Chinese hamster. The settings on record: for IC50: 5 hrs treatment, conditioned media. On the procedure:
CHO-2B7 cells (Mayo Clinic) are Chinese hamster ovary cells stably transfected with human βAPP 695wt. The cells were cultured in Ham's F12 media (Thermo Fisher SH30026.01, Waltham, MA, USA) supplemented with 10% FBS, 0.25 mg/mL Zeocin and 90 ug/mL penicillin/streptomycin at 37°C in a 5% CO2 atmosphere. For compound treatment, cells were plated in 96-well plates at a density of 1.0 × 10^5 cells/mL and allowed grow to 100% confluence over two days. Test compounds in dimethyl sulfoxide (DMSO) were diluted 100-fold directly into the media before being adding to the cells. Immediately prior to adding compound-containing media to the cells, the cells were washed once with 1X PBS. Conditioned media from CHO-2B7 cells were collected after 5 hrs of treatment and the levels of Aβ peptides were assessed as described below.
Conditioned media were collected after 5 hrs of treatment and diluted with one volume of MSD blocking buffer (1% BSA in MSD wash buffer). MSD Human (6E10) Aβ 3-Plex plates, which are pre-spotted with three separate spots in each well containing capture antibodies against the unique C-terminal ends of Aβ38, Aβ40 and Aβ42, respectively, were blocked with MSD blocking buffer for one hour. Samples were transferred to the blocked plates with 6E10 detection antibody and incubated for 2 hrs at room temperature with orbital shaking followed by washing and reading according to the manufacturer's instructions (SECTOR® Imager 2400 Meso Scale Discovery, Gaithersburg MD, USA).

Like-named read-outs stand apart in the source and are kept apart here.

One may read the IC50 as the point on the concentration scale where inhibition reaches its midpoint. Regarding `C[C@@H](C(=O)O)c1ccc(-c2ccccc2)c(F)c1` [Flurizan], the half-maximal inhibitory concentration (IC50) on gamma-secretase [1] was 250000 nM.
Consider `CC(C)CC[C@H](c1ccc(Cl)cc1)N1CC[C@@H](CC(=O)O)C[C@H]1c1ccc(C(F)(F)F)cc1` [Merck GSM-1], for which, in the test with gamma-secretase [2], the “effect on Aβ38 levels” value is recorded as “increased Aβ38 levels” and the “effect on Aβ42 levels” value is on record as “significantly reduced Aβ42”.
For `CCO[C@@H]([C@H]1C[C@@H](C)[C@H]2[C@@H](O1)[C@H](O)[C@@]1(C)[C@@H]3CC[C@H]4C(C)(C)[C@@H](O[C@H]5CN(C6CN(C(C)C)C6)CCO5)CC[C@@]45C[C@@]35CC[C@]21C)C(C)(C)O` [SPI-1865], the “Total Aβ” value with gamma-secretase [3] (CHO-2B7 cells) is given as “only decreased at doses where cytotoxicity was observed”. The IC50 in the test on gamma-secretase [3] (CHO-2B7 cells, read-out: IC50 Aβ38) was 259 nM; in the test with gamma-secretase [3] (CHO-2B7 cells, read-out: IC50 Aβ40) it was 2800 nM; in the test on gamma-secretase [3] (CHO-2B7 cells, read-out: IC50 Aβ42) it was 106 nM. The “IC25 Aβ42” value in the test with gamma-secretase [3] (in vitro) was determined as 33 ± 18 nM.

Source of the values: article PMC3707052 (Alzheimer's Research & Therapy, 2013).
